Entries after “also recorded” stand apart in the source; their conditions may differ.
Legend:
[1] = molecular target: Star-PAP complex-associated kinase activity (CKI); conditions: printed beside inhibitor name/vendor and in FIG. 23 legend; inhibitors used at 0.1-100 μM on FLAG-Star-PAP complex; cited from earlier work
[2] = tested on: HO-1 mRNA; experiment: quantitative real-time PCR of HO-1 mRNA in HEK 293 cells; conditions: HEK 293 cells pretreated with CKI inhibitor (IC261 50 μM, CKI-7 250 μM, 2.5 h)
[3] = tested on: T1, Star-PAP complex-associated kinase activity (CKI); experiment: in vitro protein kinase assay of purified FLAG-Star-PAP complex: phosphorylation of Star-PAP by the complex-associated kinase activity; format: biochemical, Human; conditions: for phosphorylation of Star-PAP by the complex-associated kinase activity: inhibitor 0.1-100 μM, 45 minutes on ice before ATP
T1 construct: other: PI4,5P2 micelles, 12.5-100 μM; phosphorylation of Star-PAP by the complex-associated kinase activity; Flag-Star-PAP and FLAG-PAPα were expressed in HEK 293 cells and purified on anti-FLAG M2 resin
Method: Synthetic PI4,5P2 (Echelon Biosciences Inc.) was resuspended in 50 mM Tris-HCL pH 7.9 at 2.5 mM and subjected to bath sonication to form micelles and used at final concentration of 12.5-100 μM.
The kinase assays were performed as described above in section 8 for the Star-PAP complexes. Except for inhibitor studies, all reaction components except ATP were incubated with inhibitors for 45 minutes on ice prior to starting the assay.

[4] = molecular target: T2, Star-PAP (Homo sapiens, UniProt Q9H6E5, D66G); experiment: in vitro poly(A) polymerase assay with Star-PAP; format: biochemical
T2 construct: full length His-Star-PAP was purified over a Ni^++ or glutathione columns; His; T7 tag; made in house; host or cells: E. coli BL21(DE3)
T2 sequence (Q9H6E5 1-874 D66G): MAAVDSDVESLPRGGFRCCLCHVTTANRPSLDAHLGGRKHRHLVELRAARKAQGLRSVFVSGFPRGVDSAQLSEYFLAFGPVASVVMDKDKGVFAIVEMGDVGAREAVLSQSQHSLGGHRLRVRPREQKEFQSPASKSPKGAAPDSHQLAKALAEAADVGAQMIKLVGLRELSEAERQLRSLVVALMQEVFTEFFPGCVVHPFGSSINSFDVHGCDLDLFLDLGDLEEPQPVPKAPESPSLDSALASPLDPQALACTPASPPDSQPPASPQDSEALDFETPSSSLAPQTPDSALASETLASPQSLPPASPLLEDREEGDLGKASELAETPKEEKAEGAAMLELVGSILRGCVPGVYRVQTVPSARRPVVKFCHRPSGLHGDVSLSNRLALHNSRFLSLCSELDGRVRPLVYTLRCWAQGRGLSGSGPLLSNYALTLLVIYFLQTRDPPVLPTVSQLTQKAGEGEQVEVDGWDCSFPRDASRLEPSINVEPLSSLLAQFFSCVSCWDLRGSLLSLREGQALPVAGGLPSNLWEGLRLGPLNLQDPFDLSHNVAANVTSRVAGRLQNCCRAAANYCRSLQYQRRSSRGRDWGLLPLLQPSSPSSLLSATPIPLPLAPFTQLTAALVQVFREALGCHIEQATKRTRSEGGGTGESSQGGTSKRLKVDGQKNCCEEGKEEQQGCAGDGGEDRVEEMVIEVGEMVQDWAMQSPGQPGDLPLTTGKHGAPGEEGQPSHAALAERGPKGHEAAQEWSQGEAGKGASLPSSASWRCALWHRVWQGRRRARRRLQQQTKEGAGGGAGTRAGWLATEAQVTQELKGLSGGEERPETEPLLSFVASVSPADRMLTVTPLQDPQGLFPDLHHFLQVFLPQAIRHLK
Description: The poly(A) polymerase activity of PIP-PAPs such as Star-PAP, natural or artificial variants, homologues or fragments thereof may be tested by methods known in the art. (See e.g., Kyriakopoulou et al., (2001) J Biol Chem, 276:33504-11).
(§1) As another example, a specific 45 nt RNA oligonucleotide (UAGGGA)5A15 (SEQ ID NO: 22) was designed to serve as an RNA substrate in the poly(A) polymerase assay.
Because Star-PAP associates with the PI4,5P2 generating enzyme PIPKIα; the effect of exogenous phosphoinositides on the in vitro poly(A) polymerase activity of Star-PAP was evaluated. Star-PAP was incubated in the presence of various phosphoinositides (PI, PI3P, PI4P, PI5P, PI3,4P2, PI3,5P2, PI4,5P2 and PI3,4,5P3) or buffer only as a control. Following a brief incubation period the remaining components of the assay were added and allowed to react. In the absence of any phosphoinositide species, Star-PAP was able to extend an RNA primer to generate a modest poly(A) tail. In the presence of PI4,5P2 the incorporation of ATP into poly(A) tails was enhanced. […] This effect was specific for PI4,5P2 as all other inositol phospholipids assayed had no effect on Star-PAP activity in this assay.

[5] = molecular target: PAPα (Homo sapiens, UniProt P51003); experiment: in vitro poly(A) polymerase assay with PAPα; format: biochemical; conditions: 50 μM inositol phospholipid micelles
Sequence of PAPα (P51003 whole entry): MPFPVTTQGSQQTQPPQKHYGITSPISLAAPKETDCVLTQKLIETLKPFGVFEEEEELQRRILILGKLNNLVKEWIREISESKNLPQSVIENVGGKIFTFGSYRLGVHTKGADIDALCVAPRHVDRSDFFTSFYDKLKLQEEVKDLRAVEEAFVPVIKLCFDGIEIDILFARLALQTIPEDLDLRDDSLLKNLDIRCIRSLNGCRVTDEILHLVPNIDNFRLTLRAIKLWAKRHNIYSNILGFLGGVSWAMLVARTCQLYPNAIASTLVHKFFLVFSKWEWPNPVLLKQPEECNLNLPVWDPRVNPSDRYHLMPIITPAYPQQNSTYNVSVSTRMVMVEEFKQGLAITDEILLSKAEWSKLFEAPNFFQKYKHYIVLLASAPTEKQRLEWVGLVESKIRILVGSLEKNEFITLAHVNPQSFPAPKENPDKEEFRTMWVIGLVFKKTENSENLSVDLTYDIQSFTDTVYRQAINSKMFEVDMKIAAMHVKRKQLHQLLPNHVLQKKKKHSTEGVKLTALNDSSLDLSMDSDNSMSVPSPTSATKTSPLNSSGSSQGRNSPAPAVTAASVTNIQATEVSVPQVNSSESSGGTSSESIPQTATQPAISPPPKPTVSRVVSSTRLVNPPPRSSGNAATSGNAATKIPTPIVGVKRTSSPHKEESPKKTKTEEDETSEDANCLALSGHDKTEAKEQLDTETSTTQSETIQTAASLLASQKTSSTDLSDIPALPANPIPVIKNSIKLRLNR

[6] = molecular target: T3, Star-PAP complex (Homo sapiens, UniProt Q9H6E5, D66G); experiment: PAP assay with Star-PAP complex purified from stably expressing HEK-293 cells treated with tBHQ; format: cell-based
T3 construct: made in house; host or cells: HEK-293 cells stably expressing FLAG-Star-PAP, treated with tBHQ before purification
T3 sequence (Q9H6E5 1-874 D66G): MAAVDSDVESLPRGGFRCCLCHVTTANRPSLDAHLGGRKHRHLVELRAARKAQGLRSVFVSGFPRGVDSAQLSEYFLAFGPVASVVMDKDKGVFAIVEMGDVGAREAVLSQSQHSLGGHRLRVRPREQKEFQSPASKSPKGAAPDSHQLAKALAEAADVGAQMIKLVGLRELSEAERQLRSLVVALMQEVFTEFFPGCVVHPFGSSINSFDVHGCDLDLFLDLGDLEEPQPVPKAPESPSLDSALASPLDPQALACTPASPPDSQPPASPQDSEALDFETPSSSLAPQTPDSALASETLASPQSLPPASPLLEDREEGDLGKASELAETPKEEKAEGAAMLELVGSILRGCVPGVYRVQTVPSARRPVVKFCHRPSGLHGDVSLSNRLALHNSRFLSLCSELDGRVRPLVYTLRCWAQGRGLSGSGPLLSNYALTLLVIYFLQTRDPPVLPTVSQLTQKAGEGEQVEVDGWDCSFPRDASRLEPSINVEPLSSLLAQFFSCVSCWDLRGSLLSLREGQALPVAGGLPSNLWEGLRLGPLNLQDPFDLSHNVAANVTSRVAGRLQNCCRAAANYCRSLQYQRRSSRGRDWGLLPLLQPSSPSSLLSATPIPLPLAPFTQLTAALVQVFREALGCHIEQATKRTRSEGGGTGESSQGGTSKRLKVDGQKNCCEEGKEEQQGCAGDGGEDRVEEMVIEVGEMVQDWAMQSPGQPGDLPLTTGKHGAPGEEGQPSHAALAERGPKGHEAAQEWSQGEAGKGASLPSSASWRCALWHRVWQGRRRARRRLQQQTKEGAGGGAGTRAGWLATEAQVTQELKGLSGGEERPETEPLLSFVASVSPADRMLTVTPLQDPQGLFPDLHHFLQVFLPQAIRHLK
Description: Treatment of cells with tBHQ caused a large increase in Star-PAP complex activity for the initiation of polyadenylation. […] PI4,5P2 produced by PIPKIα in the complex may then control the processivity of Star-PAP, resulting in a lengthened poly(A) tail. In this manner Star-PAP may respond to oxidative stress signals, and potential other signals, to efficiently regulate the 3′ end formation and polyadenylation by the Star-PAP complex.

[7] = molecular target: T4, CKIα (Rattus norvegicus, UniProt P97633); experiment: in vitro phosphorylation of heat inactivated FLAG-Star-PAP by purified FLAG-CKIα; format: biochemical; conditions: 50 μM
T4 construct: made in house; host or cells: HEK 293 cells
T4 sequence (P97633 1-325): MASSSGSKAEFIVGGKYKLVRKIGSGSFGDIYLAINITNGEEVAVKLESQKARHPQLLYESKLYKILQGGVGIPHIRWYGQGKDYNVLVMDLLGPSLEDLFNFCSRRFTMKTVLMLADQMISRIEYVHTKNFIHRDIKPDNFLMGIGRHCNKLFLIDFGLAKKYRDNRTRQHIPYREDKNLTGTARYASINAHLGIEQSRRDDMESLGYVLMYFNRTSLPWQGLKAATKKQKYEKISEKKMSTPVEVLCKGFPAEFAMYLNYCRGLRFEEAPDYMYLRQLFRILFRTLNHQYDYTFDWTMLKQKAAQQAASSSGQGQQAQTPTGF
Method: Flag-Star-PAP and FLAG-PAPα were expressed in HEK 293 cells and purified on anti-FLAG M2 resin. Purified PAP complexes were subject to an in vitro protein kinase assay as follows. Protein kinase assays were performed in 1× kinase buffer (50 mM Tris-HCl pH 7.5, 10 mM MgCl2 and 0.5 mM EGTA). Assays were initiated by the addition of 10 μM ATP and 5 μCi γ^32P ATP to the reaction mix. Substrates included 100 μg/ml of the generic protein kinase substrates myelin basic protein (MBP) or casein. Heat inactivation of the endogenous kinase activity in the Star-PAP complex was destroyed by heating for 15 minutes at 65° C. The Star-PAP purified complex contained protein kinase activity toward both MBP and casein while the PAPα complex contained almost no detectable protein kinase activity (FIG. 19).
Casein Kinase Iα (CKIα), is a protein kinase found in nuclear speckles; moreover, CKIα activity is inhibited by PI4,5P2. […] FLAG proteins were expressed and purified as follows. Human Star-PAP and rat CKIα cDNAs were cloned in to the pFLAG-1 mammalian expression vector (Sigma). […]
Before the phosphorylation assay, endogenous kinase activity in the FLAG complex was destroyed by heat inactivation; no detectable phosphorylation activity was detected after heat inactivation. […]

[8] = molecular target: yeast canonical poly(A) polymerase (Saccharomyces cerevisiae, UniProt P29468); experiment: in vitro poly(A) polymerase assay with yeast canonical poly(A) polymerase control; format: biochemical; conditions: (UAGGGA)5A15 primer
Sequence of yeast canonical poly(A) polymerase (P29468 whole entry): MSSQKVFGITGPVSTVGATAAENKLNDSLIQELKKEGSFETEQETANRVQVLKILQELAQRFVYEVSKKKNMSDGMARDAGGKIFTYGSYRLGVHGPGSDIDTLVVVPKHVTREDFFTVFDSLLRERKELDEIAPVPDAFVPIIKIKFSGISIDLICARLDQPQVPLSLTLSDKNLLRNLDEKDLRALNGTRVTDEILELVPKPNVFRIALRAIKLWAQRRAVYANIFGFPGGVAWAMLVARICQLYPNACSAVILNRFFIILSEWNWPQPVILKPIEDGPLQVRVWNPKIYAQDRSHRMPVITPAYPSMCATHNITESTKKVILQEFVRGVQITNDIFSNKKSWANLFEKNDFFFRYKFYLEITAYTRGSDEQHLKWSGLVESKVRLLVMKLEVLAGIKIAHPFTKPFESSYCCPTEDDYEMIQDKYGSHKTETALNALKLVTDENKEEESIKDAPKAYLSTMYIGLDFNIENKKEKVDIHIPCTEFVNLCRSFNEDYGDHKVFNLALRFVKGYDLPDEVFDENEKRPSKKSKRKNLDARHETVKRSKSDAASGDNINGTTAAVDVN
Description: as §1

In the case of `NCCNS(=O)(=O)c1ccc(Cl)c2ccncc12` [CKI-7], the IC50 [1] is given as about 6 µM, the “basal levels of HO-1 mRNA” value [2] is given as “reduce HO-1” and the “phosphorylation of Star-PAP by the complex-associated kinase activity” value [3] is given as “block the phosphorylation of Star-PAP by the complex-associated kinase activity in a dose dependent fashion”.

For “phosphatidylinositol-4,5-bisphosphate [PI4,5P2]”, the “effect of phosphoinositide on Star-PAP poly(A) polymerase activity (incorporation of ATP into poly(A) tails)” value ([4]; 50 μM inositol phospholipid micelles) was “enhanced”, the “effect of phosphoinositide on PAPα activity” value [5] was “no phosphoinositides tested, including PI4,5P2 stimulated the activity of PAPα” and the “Star-PAP processivity (length of the poly(A) tails)” value ([6]; Star-PAP isolated from tBHQ-treated cells, time course) was “stimulated Star-PAP processivity, increasing the length of the poly(A) tails”. The “concentration at which phosphorylation of FLAG-Star-PAP was inhibited (as low as)” value ([3]; PI4,5P2 micelles, 12.5-100 μM) was 12.5 µM and the “phosphorylation of Star-PAP by CKIα” value [7] was “blocked; also recorded: can block CKIα phosphorylation of Star-PAP”.

With `CC(C)(C)c1cc(O)ccc1O` [tBHQ, tert-butylhydroquinone] the “increase in enzymatic activity of Star-PAP complex over Star-PAP from control cells” value ([6]; cells treated with 100 μM tBHQ) was “more than 15 fold”.

For cordycepin triphosphate, the “yeast canonical poly(A) polymerase activity with chain terminator” value [8] was “inhibited in a dose dependent fashion” and the “Star-PAP poly(A) polymerase activity with chain terminator” value ([4]; (UAGGGA)5A15 primer) was “inhibited in a dose dependent fashion”.

For `COc1cc(OC)c(C=C2C(O)=Nc3ccccc32)c(OC)c1` [IC261], the IC50 [1] is listed as 11 µM, the “basal levels of HO-1 mRNA” value [2] is listed as “reduce HO-1” and the “phosphorylation of Star-PAP by the complex-associated kinase activity” value [3] is listed as “block the phosphorylation of Star-PAP by the complex-associated kinase activity in a dose dependent fashion”. The “phosphorylation of Star-PAP by CKIα” value [7] was “blocked; also recorded: can block CKIα phosphorylation of Star-PAP”.

B1: Star-PAP: novel PIP-regulated poly(A) polymerase, SEQ ID NO: 2 (protein, listed as Homo sapiens)
chain: MAAVDSDVESLPRGGFRCCLCHVTTANRPSLDAHLGGRKHRHLVELRAARKAQGLRSVFVSGFPRGVDSAQLSEYFLAFGPVASVVMDKDKGVFAIVEMGDVGAREAVLSQSQHSLGGHRLRVRPREQKEFQSPASKSPKGAAPDSHQLAKALAEAADVGAQMIKLVGLRELSEAERQLRSLVVALMQEVFTEFFPGCVVHPFGSSINSFDVHGCDLDLFLDLGDLEEPQPVPKAPESPSLDSALASPLDPQALACTPASPPDSQPPASPQDSEALDFETPSSSLAPQTPDSALASETLASPQSLPPASPLLEDREEGDLGKASELAETPKEEKAEGAAMLELVGSILRGCVPGVYRVQTVPSARRPVVKFCHRPSGLHGDVSLSNRLALHNSRFLSLCSELDGRVRPLVYTLRCWAQGRGLSGSGPLLSNYALTLLVIYFLQTRDPPVLPTVSQLTQKAGEGEQVEVDGWDCSFPRDASRLEPSINVEPLSSLLAQFFSCVSCWDLRGSLLSLREGQALPVAGGLPSNLWEGLRLGPLNLQDPFDLSHNVAANVTSRVAGRLQNCCRAAANYCRSLQYQRRSSRGRDWGLLPLLQPSSPSSLLSATPIPLPLAPFTQLTAALVQVFREALGCHIEQATKRTRSEGGGTGESSQGGTSKRLKVDGQKNCCEEGKEEQQGCAGDGGEDRVEEMVIEVGEMVQDWAMQSPGQPGDLPLTTGKHGAPGEEGQPSHAALAERGPKGHEAAQEWSQGEAGKGASLPSSASWRCALWHRVWQGRRRARRRLQQQTKEGAGGGAGTRAGWLATEAQVTQELKGLSGGEERPETEPLLSFVASVSPADRMLTVTPLQDPQGLFPDLHHFLQVFLPQAIRHLK
For B1, the “specific poly(A) polymerase activity relative to canonical PAPα” value ([4]; side-by-side with PAPα) was 1.3 fold.

Source: patent US8088574B2, “Poly(A) polymerase” (Wisconsin Alumni Research Foundation, priority 2007, dated 2012)
